In patent US4393225A, “AI-77 Compounds and pharmaceutically acceptable salts thereof” (Asahi Kasei Kogyo Kabushiki Kaisha, priority 1979, dated 1983):

test system: ulcer; assay: Anti-ulcer test (restraint and water immersion ulcer in rats, i.p.); assay type: in vivo, Male Wistar rats; details: Rattus norvegicus, ip, read-out: % Inhibition of Ulcer
Method in brief: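 Compound given intraperitoneally in saline to 24 h-fasted male Wistar rats about 150 g, followed after one hour by 6 h restraint with water immersion at 21 °C. Gastric lesions graded 0, 0.5, 1, 2 or 3 on microscopic inspection and converted to percent ulcer inhibition.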

| Compound | inhibition in vivo at 25 mg/kg |
| --- | --- |
| CCNC(CC(=O)NCCCl)C(O)C(OC(=O)CC)C(=O)NC(CC(C)C)C1Cc2cccc(O)c2C(=O)O1 (stereo not drawn) [VII-11-4] | 56% |

same assay, conditions: Rattus norvegicus, ip; 25 mg/kg i.p.; read-out: % Inhibition of Ulcer

| Compound | inhibition in vivo at 25 mg/kg |
| --- | --- |
| Cc1ccc(CNC(=O)CC(N)C(O)C(O)C(=O)NC(CC(C)C)C2Cc3cccc(O)c3C(=O)O2)cc1 (stereo not drawn) [VII-1-22] | 83% |
| CC(=O)OC(C(=O)NC(CC(C)C)C1Cc2cccc(O)c2C(=O)O1)C(O)C(N)CC(N)=O (stereo not drawn) [VII-2-1] | 78% |

same assay, conditions: Rattus norvegicus, ip; 50 mg/kg i.p.; read-out: % Inhibition of Ulcer

| Compound | inhibition in vivo at 50 mg/kg |
| --- | --- |
| CCCCCC(=O)OC(C)CC(=O)NC1CC(=O)OC1C(O)C(=O)NC(CC(C)C)C1Cc2cccc(O)c2C(=O)O1 (stereo not drawn) [IIIa-1-49] | 56% |
| CCNC(CC(=O)O)C(O)C(O)C(=N)NC(CC(C)C)C1Cc2cccc(O)c2C(=O)O1 (stereo not drawn) [Vb-10-1] | 94% |
| CNC1CC(=O)OC1C(OC)C(=O)NC(CC(C)C)C1Cc2cccc(O)c2C(=O)O1 (stereo not drawn) [IIIa-34-1] | 66% |
| CCOc1cccc2c1C(=O)OC(C(CC(C)C)NC(=O)C(O)C1OC(=O)CC1NC(=O)C1CCCCCCC1)C2 (stereo not drawn) [IIIa-5-60] | 44% |
| CC(=O)Oc1cccc2c1C(=O)OC(C(CC(C)C)NC(=N)C(OC(C)=O)C(O)C(CC(=O)O)NCC1CCCO1)C2 (stereo not drawn) [Vb-12-2] | 56% |
| CC(C)CC(NC(=O)C(O)C1C=CC(=O)O1)C1Cc2cccc(OCc3ccc4ccccc4c3)c2C(=O)O1 (stereo not drawn) [IVa-4-17] | 33% |
| CCOc1cccc2c1C(=O)OC(C(CC(C)C)NC(=O)C(O)C1OC(=O)CC1NC(=O)CSC)C2 (stereo not drawn) [IIIa-5-43] | 44% |
| COc1cccc2c1C(=O)OC(C(CC(C)C)NC(=O)C(O)C1OC(=O)CC1NCC(Cl)(Cl)Cl)C2 (stereo not drawn) [IIIa-22-7] | 78% |
| CC(C)CC(NC(=O)C(O)C1C=CC(=O)O1)C1Cc2cccc(OCCCl)c2C(=O)O1 (stereo not drawn) [IVa-4-6] | 44% |
| CCCCCCCCC=CCCCCCCCC(=O)NC1CC(=O)OC1C(O)C(=O)NC(CC(C)C)C1Cc2cccc(OC(C)=O)c2C(=O)O1 (stereo not drawn) [IIIa-4-4] | 33% |
| CC(C)CC(NC(=O)C(O)C1OC(=O)CC1NC(=O)c1ccc(C(C)C)cc1)C1Cc2cccc(O)c2C(=O)O1 (stereo not drawn) [IIIa-1-69] | 66% |
| CCC(=O)OC(C(=O)NC(CC(C)C)C1Cc2cccc(O)c2C(=O)O1)C1OC(=O)CC1NC(C)=O (stereo not drawn) [IIIa-2-10] | 44% |
| CCOc1cccc2c1C(=O)OC(C(CC(C)C)NC(=O)C(O)C1OC(=O)CC1NC(=O)C1CCC(OC)CC1)C2 (stereo not drawn) [IIIa-5-71] | 33% |
| C/C=C/C(=O)OC(C(=N)NC(CC(C)C)C1Cc2cccc(O)c2C(=O)O1)C(O)C(N)CC(=O)O (stereo not drawn) [Vb-2-3] | 66% |
| CC(C)CC(NC(=O)C(O)C1C=CC(=O)O1)C1Cc2cccc(OCCC3CCCCO3)c2C(=O)O1 (stereo not drawn) [IVa-4-15] | 44% |
| CCOc1cccc2c1C(=O)OC(C(CC(C)C)NC(=O)C(O)C1OC(=O)CC1NC(=O)C1CCC(C(=O)OC)CC1)C2 (stereo not drawn) [IIIa-5-66] | 44% |
| CSc1ccc(C(=O)NC2CC(=O)OC2C(O)C(=O)NC(CC(C)C)C2Cc3cccc(O)c3C(=O)O2)cc1 (stereo not drawn) [IIIa-1-46] | 66% |
| CCOc1cccc2c1C(=O)OC(C(CC(C)C)NC(=O)C(O)C1OC(=O)CC1NCCCCCO)C2 (stereo not drawn) [IIIa-22-53] | 78% |
| CC(=O)NC1CC(=O)OC1C(OC(C)=O)C(=O)NC(CC(C)C)C1Cc2cccc(O)c2C(=O)O1 (stereo not drawn) [IIIa-2-2] | 44% |
| CCCCOC(C(=O)NC(CC(C)C)C1Cc2cccc(OC)c2C(=O)O1)C1OC(=O)CC1N (stereo not drawn) [IIIa-15-1] | 56% |
| CC(C)CC(NC(=O)C(O)C1OC(=O)CC1NC(=O)CCCBr)C1Cc2cccc(O)c2C(=O)O1 (stereo not drawn) [IIIa-1-31] | 66% |
| CCNC1CC(=O)OC1C(OC)C(=O)NC(CC(C)C)C1Cc2cccc(OC(=O)C(C)C)c2C(=O)O1 (stereo not drawn) [IIIa-26-9] | 56% |
| CCCC=Cc1ccc(C(=O)NC2CC(=O)OC2C(O)C(=O)NC(CC(C)C)C2Cc3cccc(OCC)c3C(=O)O2)cc1 (stereo not drawn) [IIIa-5-74] | 44% |
| CC(C)CC(NC(=O)C(O)C1OC(=O)CC1NC(=O)c1ccco1)C1Cc2cccc(O)c2C(=O)O1 (stereo not drawn) [IIIa-1-22] | 66% |
